As a reminder, the IC50 is the concentration that inhibits the measured activity by half. Usually inhibition stands for the drop in the measured response relative to a control, in per cent.

The text below walks through data of PubChem BioAssay AID624129 (Sanford-Burnham Center for Chemical Genomics, 2012).

Holding throughout (assay): CXCR6 receptor antagonists, dose response, cell-based, beta-arrestin, DiscoveRx, APJ panel, uHTS hits (AID 624129)
The target of test [1] is C-C chemokine receptor type 6 (Homo sapiens) (UniProt P51684). Particulars: CXCR6 beta-arrestin (DiscoveRx) antagonist cell assay.
The target in test [2] is C-X-C chemokine receptor type 6 (Homo sapiens) (UniProt O00574). Particulars: CXCR6 beta-arrestin (DiscoveRx) antagonist cell assay; for inhibition: CXCR6, run 1, dose range 2, at 80 µM (top of the series).
Test [3] addresses Beta-galactosidase (Escherichia coli) (UniProt Q8VNN2). To be noted: CXCR6 beta-arrestin (DiscoveRx) antagonist cell assay, b-galactosidase.
Test [4] concerns the target Apelin receptor (Homo sapiens) (UniProt P35414). To be noted: CXCR6 beta-arrestin (DiscoveRx) antagonist cell assay, APJ.
Where [5] appears, read: CCR6, dose range 1, mean IC50 across replicates.
Setting [6] is: CXCR6, dose range 1, mean IC50 across replicates.
Setting [7] is: dose range 1, mean IC50 across replicates.

Calls of active or inactive are those of the source. The rule behind the calls is not given here. A value given as a limit tells only on which side of the number the result lay.

Chain of C-X-C chemokine receptor type 6 (Homo sapiens) (O00574 whole entry, looked up): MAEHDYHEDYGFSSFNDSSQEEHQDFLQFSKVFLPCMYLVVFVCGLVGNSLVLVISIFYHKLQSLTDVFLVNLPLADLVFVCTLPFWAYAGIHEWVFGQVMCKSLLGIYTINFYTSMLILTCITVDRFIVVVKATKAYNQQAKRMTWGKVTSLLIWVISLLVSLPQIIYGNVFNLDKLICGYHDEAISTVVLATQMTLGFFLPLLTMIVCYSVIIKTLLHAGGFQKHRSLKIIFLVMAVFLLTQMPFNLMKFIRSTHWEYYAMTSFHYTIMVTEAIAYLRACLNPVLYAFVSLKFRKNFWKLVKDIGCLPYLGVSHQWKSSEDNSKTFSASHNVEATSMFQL
Chain of Beta-galactosidase (Escherichia coli) (Q8VNN2 whole entry, looked up): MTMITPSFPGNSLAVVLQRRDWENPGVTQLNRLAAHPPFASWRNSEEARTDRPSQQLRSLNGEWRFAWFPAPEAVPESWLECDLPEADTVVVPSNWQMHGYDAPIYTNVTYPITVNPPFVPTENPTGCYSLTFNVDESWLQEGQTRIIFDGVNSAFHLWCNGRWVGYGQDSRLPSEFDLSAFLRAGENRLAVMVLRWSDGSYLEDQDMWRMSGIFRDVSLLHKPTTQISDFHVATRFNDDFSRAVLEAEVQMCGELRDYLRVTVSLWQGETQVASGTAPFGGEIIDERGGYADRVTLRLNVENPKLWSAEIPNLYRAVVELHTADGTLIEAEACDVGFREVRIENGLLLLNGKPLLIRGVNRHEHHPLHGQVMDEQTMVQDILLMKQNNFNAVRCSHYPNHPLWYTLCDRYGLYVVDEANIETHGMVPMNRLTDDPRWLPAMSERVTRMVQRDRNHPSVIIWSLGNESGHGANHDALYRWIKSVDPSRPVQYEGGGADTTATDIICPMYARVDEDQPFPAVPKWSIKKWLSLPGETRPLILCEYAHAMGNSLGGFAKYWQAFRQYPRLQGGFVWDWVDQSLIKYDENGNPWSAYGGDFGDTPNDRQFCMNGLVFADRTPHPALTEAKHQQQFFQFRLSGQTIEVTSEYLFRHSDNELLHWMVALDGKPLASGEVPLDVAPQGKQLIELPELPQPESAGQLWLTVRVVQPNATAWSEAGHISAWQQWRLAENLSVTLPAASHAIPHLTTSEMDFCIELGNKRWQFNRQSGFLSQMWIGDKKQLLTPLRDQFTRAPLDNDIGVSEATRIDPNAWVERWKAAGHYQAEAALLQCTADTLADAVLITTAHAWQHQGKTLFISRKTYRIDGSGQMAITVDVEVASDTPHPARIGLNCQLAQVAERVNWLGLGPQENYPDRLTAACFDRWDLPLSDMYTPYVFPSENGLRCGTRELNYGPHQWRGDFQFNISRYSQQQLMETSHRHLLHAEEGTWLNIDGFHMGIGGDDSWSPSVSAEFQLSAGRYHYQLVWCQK

`CC(C)(C)c1ccc(-n2nc(C#N)c(Cl)cc2=O)cc1`: the IC50 is 3.8 µM in test [1] (CCR6, dose range 1); 5.45 µM in test [1] (setting [5]); 7.1 µM in test [1] (CCR6, run 2, dose range 1); 11.5 µM in test [2] (CXCR6, dose range 1); 8.28 µM in test [2] (setting [6]); 5.14 µM in test [2] (CXCR6, run 1, dose range 2). Further, the IC50 in test [2] (CXCR6, run 2, dose range 1) was 8.56 µM; in test [2] (CXCR6, run 2, dose range 2), 7.92 µM; in test [3] (dose range 1), > 80 µM (inactive); in test [3] (setting [7]) it was greater than 80 µM; in test [4] (dose range 1) it was 7.12 µM; in test [4] (setting [7]), 7.86 µM. Moreover, the half-maximal inhibitory concentration (IC50) in test [4] (run 2, dose range 1) was 5.54 µM; in test [4] (run 3, dose range 1), 10.9 µM.
As to `COc1cc(/C=C/c2ccc3cccc(O)c3n2)ccc1O`, the concentration for half-maximal inhibition (IC50) is 13 µM in test [1] (CCR6, dose range 1); 12.9 µM in test [1] (setting [5]); 12.9 µM in test [1] (CCR6, run 2, dose range 1); 14.4 µM in test [2] (setting [6]); 13.1 µM in test [2] (CXCR6, run 2, dose range 1); > 80 µM (inactive) in test [3] (dose range 1). The IC50 was greater than 80 µM in test [3] (setting [7]); 15.3 µM in test [4] (dose range 1); 19.1 µM in test [4] (setting [7]); 20.7 µM in test [4] (run 2, dose range 1); 21.4 µM in test [4] (run 3, dose range 1). For the same compound, in test [2] (CXCR6, dose range 1), the IC50 result was “inactive”. The inhibition in test [2] worked out at 131%.
For `Oc1cccc2ccc(/C=C/c3cccs3)nc12`, the concentration for half-maximal inhibition (IC50) was 3.95 µM in test [1] (CCR6, dose range 1); 5.65 µM in test [1] (setting [5]); 7.36 µM in test [1] (CCR6, run 2, dose range 1); 4.43 µM in test [2] (setting [6]); 2.77 µM in test [2] (CXCR6, run 1, dose range 2); 6.87 µM in test [2] (CXCR6, run 2, dose range 1). Further, the 50% inhibitory concentration (IC50) is 3.64 µM in test [2] (CXCR6, run 2, dose range 2); > 80 µM (inactive) in test [3] (dose range 1); greater than 80 µM in test [3] (setting [7]); 5.07 µM in test [4] (dose range 1); 4.98 µM in test [4] (setting [7]); greater than 80 µM in test [4] (run 2, dose range 1). The IC50 in test [4] (run 3, dose range 1) came out at 4.89 µM.
With `CCCCCCCCn1sccc1=O`, the IC50 in test [1] (CCR6, dose range 1) is 6.52 µM; in test [1] (setting [5]), 6.83 µM; in test [1] (CCR6, run 2, dose range 1) it was 7.14 µM; in test [2] (CXCR6, dose range 1) it was 6.96 µM; in test [2] (setting [6]), 8.16 µM; in test [2] (CXCR6, run 1, dose range 2), 6.75 µM. Also, the 50% inhibitory concentration (IC50) in test [2] (CXCR6, run 2, dose range 1) was 8.67 µM; in test [2] (CXCR6, run 2, dose range 2) it was 10.2 µM; in test [3] (dose range 1), > 80 µM (inactive); in test [3] (setting [7]), greater than 80 µM; in test [4] (dose range 1), 9.73 µM; in test [4] (setting [7]) it was 8.1 µM. Further, the IC50 in test [4] (run 2, dose range 1) worked out at 7.99 µM; in test [4] (run 3, dose range 1), 6.58 µM.
Take `Cc1ccc(S(=O)(=O)Nc2cccc3cccnc23)cc1`: the concentration for half-maximal inhibition (IC50) in test [1] (CCR6, dose range 1) is 7.97 µM; in test [1] (setting [5]) it was 8.52 µM; in test [1] (CCR6, run 2, dose range 1), 9.06 µM; in test [2] (CXCR6, dose range 1) it was 10.3 µM; in test [2] (setting [6]) it was 8.04 µM; in test [2] (CXCR6, run 2, dose range 1) it was 5.75 µM. Further, the IC50 in test [3] (dose range 1) is > 80 µM (inactive); in test [3] (setting [7]) it was greater than 80 µM; in test [4] (dose range 1) it was 16.7 µM; in test [4] (setting [7]) it was 17.8 µM; in test [4] (run 2, dose range 1), 19 µM; in test [4] (run 3, dose range 1), 17.5 µM. Also, the inhibition in test [2] is 118%.
For `O=C(c1nnsc1S(=O)c1ccc(Cl)cc1)N1CCOCC1` (centres undefined), the 50% inhibitory concentration (IC50) in test [1] (CCR6, dose range 1) is 13.2 µM; in test [1] (setting [5]), 34.3 µM; in test [1] (CCR6, run 2, dose range 1), 55.4 µM; in test [2] (setting [6]), 18.3 µM; in test [2] (CXCR6, run 2, dose range 1), 17.4 µM; in test [3] (dose range 1) it was > 80 µM (inactive). Further, the concentration for half-maximal inhibition (IC50) was greater than 80 µM in test [3] (setting [7]); 19 µM in test [4] (dose range 1); 27.6 µM in test [4] (setting [7]); 24.9 µM in test [4] (run 2, dose range 1); 38.9 µM in test [4] (run 3, dose range 1). For the same compound, the IC50 entry in test [2] (CXCR6, dose range 1) is “inactive”. For the same compound, the inhibition in test [2] is 56.2%.
On to `O=C(N/N=C(\c1ccccc1)c1cccnc1)c1cccc(F)c1`, for which the half-inhibitory concentration (IC50) in test [1] (CCR6, dose range 1) is 4.35 µM; in test [1] (setting [5]), 4.64 µM; in test [1] (CCR6, run 2, dose range 1), 4.93 µM; in test [2] (CXCR6, dose range 1), 4.5 µM; in test [2] (setting [6]), 4.01 µM; in test [2] (CXCR6, run 1, dose range 2) it was 3.07 µM. The IC50 in test [2] (CXCR6, run 2, dose range 1) was 5.13 µM; in test [2] (CXCR6, run 2, dose range 2), 3.34 µM; in test [3] (dose range 1), > 80 µM (inactive); in test [3] (setting [7]) it was greater than 80 µM; in test [4] (dose range 1), 4.18 µM; in test [4] (setting [7]) it was 4.46 µM. The 50% inhibitory concentration (IC50) was determined as 5.15 µM in test [4] (run 2, dose range 1) and 4.05 µM in test [4] (run 3, dose range 1).
